Key:
[1] = target: T1, Phospholipase A1 member A (Rattus norvegicus, UniProt P97535); experiment: IC50 was measured as concentration causing 50% inhibition of lysosomal phospholipase A1 activity.
T1 sequence (P97535 whole entry): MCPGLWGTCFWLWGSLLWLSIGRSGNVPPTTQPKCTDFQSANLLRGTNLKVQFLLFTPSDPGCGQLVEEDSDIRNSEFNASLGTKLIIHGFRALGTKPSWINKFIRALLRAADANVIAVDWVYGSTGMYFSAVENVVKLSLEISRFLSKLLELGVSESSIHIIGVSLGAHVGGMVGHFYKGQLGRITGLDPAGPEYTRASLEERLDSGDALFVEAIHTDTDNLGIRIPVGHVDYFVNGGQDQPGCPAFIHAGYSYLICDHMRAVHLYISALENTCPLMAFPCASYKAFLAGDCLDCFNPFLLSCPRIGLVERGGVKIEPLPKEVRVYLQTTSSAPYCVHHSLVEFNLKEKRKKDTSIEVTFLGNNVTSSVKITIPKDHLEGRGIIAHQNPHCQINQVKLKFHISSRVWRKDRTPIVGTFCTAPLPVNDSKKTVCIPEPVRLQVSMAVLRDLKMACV

[2] = target: T1, Phospholipase A1 member A; experiment: IC50 was measured as concentration causing 50% inhibition of lysosomal phospholipase A1 activity

IC50 [1] | IC50 [2] | Structure (SMILES)
75.5 µM | – | CC(N)C(=O)NCC1OC(OC2C(N)CC(N)C(OC3OC(CO)C(O)C(N)C3O)C2O)C(O)C(O)C1O (centres undefined)
115 µM | – | CCN[C@@H]1C[C@H](N)[C@@H](O[C@H]2OC(CN)=CC[C@H]2N)[C@H](O)[C@H]1O[C@H]1OC[C@](C)(O)[C@H](NC)[C@H]1O [Netilmicin]
80.4 µM | – | NC[C@H]1O[C@H](O[C@H]2[C@H](O)[C@@H](O[C@H]3O[C@H](CO)[C@@H](O)[C@H](N)[C@H]3O)[C@H](N)C[C@@H]2N)[C@H](O)[C@@H](O)[C@@H]1O [CHEBI:17630]
– | 49.4 µM | C[C@H](N)C(=O)N[C@@H](C)C(=O)NC[C@H]1O[C@H](O[C@H]2[C@@H](O)[C@@H](O[C@H]3O[C@@H](CO)[C@@H](O)[C@H](N)[C@@H]3O)[C@H](N)C[C@@H]2N)[C@H](O)[C@H](O)[C@@H]1O

The next lines start with the compound.

Structure (SMILES) | IC50 [1] | IC50 [2]
CN[C@@H]1[C@@H](O)[C@@H](O[C@@H]2[C@@H](O)[C@H](O[C@H]3O[C@H]([C@@H](C)NC)CC[C@H]3N)[C@@H](N)C[C@H]2N)OC[C@]1(C)O [GENTAMICIN] | 94.2 µM | –
CCNC1CC(N)C(OC2OC(CNC(=O)C(N)CC(=O)O)=CCC2N)C(O)C1OC1OCC(C)(O)C(NC)C1O (centres undefined) | – | 132 µM
CCN[C@@H]1C[C@H](N)[C@@H](O[C@H]2OC(CNC(=O)[C@H](C)NC(=O)[C@H](C)N)=CC[C@H]2N)[C@@H](O)[C@H]1O[C@H]1OC[C@](C)(O)[C@H](NC)[C@@H]1O | – | 101 µM
CCNC1CC(N)C(OC2OC(CNC(=O)C(C)N)=CCC2N)C(O)C1OC1OCC(C)(O)C(NC)C1O (centres undefined) | 91.4 µM | –
CCNC1CC(N)C(OC2OC(CNC(=O)CN)=CCC2N)C(O)C1OC1OCC(C)(O)C(NC)C1O (centres undefined) | – | 118 µM

Reference: BindingDB's records for doi:10.1021/jm00023a011 (Agricultural University of Athens, 1995)
